Several values for one entry are separate records, joined by “and”; a condition that tells them apart may be missing. Identical values can stand only once. Inconclusive results and toxic doses are left out. The calls were made as follows: active = survival T/C of 150% or more; inactive = T/C below 125% in these data.
System: B6C3F1 mice, ip Sarcoma M5076, median survival T/C
Assay: NCI In Vivo Anticancer Drug Screen. Data for tumor model Sarcoma M5076 (intraperitoneal) in B6C3F1 mice
Details: endpoint: median survival time, schedule: Q04DX004 (ip), higher = longer survival
Summary of the method: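 Survival measured in treated (T) and vehicle control (C) mice with transplantable tumour; result given as T divided by C.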

[1] = dose: 37.5 mg/kg/injection, vehicle: saline with Tween-80
[2] = dose: 75.0 mg/kg/injection, vehicle: saline with Tween-80
[3] = dose: 25.0 mg/kg/injection, vehicle: Klucel (hydroxypropylcellulose) (HPC)
[4] = dose: 50.0 mg/kg/injection, vehicle: Klucel (hydroxypropylcellulose) (HPC)
[5] = dose: 100.0 mg/kg/injection, vehicle: Klucel (hydroxypropylcellulose) (HPC)
[6] = dose: 200.0 mg/kg/injection, vehicle: Klucel (hydroxypropylcellulose) (HPC)
[7] = dose: 50.0 mg/kg/injection, vehicle: saline with Tween-80
[8] = dose: 100.0 mg/kg/injection, vehicle: saline with Tween-80
[9] = dose: 400.0 mg/kg/injection, vehicle: saline with Tween-80
[10] = dose: 800.0 mg/kg/injection, vehicle: saline with Tween-80

Measured: T/C

N/C(=N/N=C/c1cc(Br)cc(Br)c1O)NO
inactive: dose: 25.0 mg/kg/injection, vehicle: suspension in saline 102 % of control | dose: 50.0 mg/kg/injection, vehicle: suspension in saline 98 % of control | dose: 100.0 mg/kg/injection, vehicle: suspension in saline 110 % of control

CN1CCN(c2c(C(=O)Nc3ccc([N+](=O)[O-])cc3)cc([N+](=O)[O-])cc2[N+](=O)[O-])CC1
inactive: [1] 96 % of control | [2] 91 % of control

O=C1CN(CCN2CC(=O)N(CN3CCOCC3)C(=O)C2)CC(=O)N1CN1CCOCC1
inactive: dose: 50.0 mg/kg/injection, vehicle: water 97 % of control | dose: 100.0 mg/kg/injection, vehicle: water 109 % of control

O=c1c(-c2nn[nH]n2)cnc2sc3cc(Cl)ccc3n12
inactive: [1] 98 % of control | [2] 95 % of control | dose: 150.0 mg/kg/injection, vehicle: saline with Tween-80 90 % of control

CCC(=O)N=c1sc(SCc2ccccc2)nn1C(=O)SC (tested in a mixture with another compound)
inactive: [3] 101 % of control | [4] 96 % of control | [5] 101 % of control | [6] 89 % of control | dose: 400.0 mg/kg/injection, vehicle: Klucel (hydroxypropylcellulose) (HPC) 86 % of control

O=S(=O)(O)SCCNCCCCC1CCCCC1
inactive: dose: 3.75 mg/kg/injection, vehicle: saline with Tween-80 100 % of control | dose: 7.5 mg/kg/injection, vehicle: saline with Tween-80 99 % of control | dose: 15.0 mg/kg/injection, vehicle: saline with Tween-80 101 % of control

Clc1cccc(Cl)c1C(Nc1nncs1)Nc1nncs1
inactive: [7] 112 % of control and 122 % of control | [8] 123 % of control
active: [9] 164 % of control | [10] 157 % of control and 195 % of control

CC[C@@]1(O)C(=O)OCc2c1cc1n(c2=O)Cc2cc3ccccc3nc2-1
inactive: dose: 0.37 mg/kg/injection, vehicle: saline with Tween-80 107 % of control | dose: 0.75 mg/kg/injection, vehicle: saline with Tween-80 109 % of control | dose: 1.5 mg/kg/injection, vehicle: saline with Tween-80 118 % of control
active: dose: 3.0 mg/kg/injection, vehicle: saline with Tween-80 150 % of control | dose: 6.0 mg/kg/injection, vehicle: saline with Tween-80 153 % of control and 159 % of control

Cn1c2ccccc2c2ccc3c(c21)C(=O)C=CC3=O
inactive: [3] 93 % of control | [4] 98 % of control

O=C(Nc1cccc(NC(=O)c2nn[nH]n2)n1)c1nn[nH]n1
inactive: [4] 99 % of control | [5] 102 % of control | [6] 94 % of control

O=c1nc2[nH]c3c4cccc5cccc(c3nc2c(=O)[nH]1)c54
inactive: dose: 12.5 mg/kg/injection, vehicle: Klucel (hydroxypropylcellulose) (HPC) 103 % of control | [3] 99 % of control | [4] 98 % of control | [5] 94 % of control | [6] 103 % of control

CCNC(=O)OCc1cnc(C)c(OC(=O)NCC)c1COC(=O)NCC
inactive: [7] 89 % of control | [8] 90 % of control | dose: 200.0 mg/kg/injection, vehicle: saline with Tween-80 87 % of control | [9] 86 % of control | [10] 91 % of control

Source: PubChem BioAssay AID292 (DTP/NCI, 2004)
